According to patent publication US9932303B2, “N-hydroxymethanesulfonamide nitroxyl donors” (Cardioxyl Pharmaceuticals, Inc., priority 2014, dated 2018):

Tests used:
[1] = In vitro stability in human plasma; type: in vitro ADME; conditions: male, pH 7.4, 37° C., read-out: T1/2 (minutes) Human
Method: (§1) Certain compounds from Table 1 were tested for their stability in plasma. The assay system comprised (i) PBS, or plasma from rat, dog or human (at least 3 donors, male, pooled) at pH 7.4, and (ii) for tests conducted in plasma, an anticoagulant (sodium heparin or sodium citrate). Each test compound (5 μM) was incubated in PBS or plasma at 37° C. on a THERMOMIXER® with shaking Three samples (n=3) were taken at each of seven sampling time points: 0, 10, 30, 60, 90, 180 and 360 minutes. The samples were immediately combined with 3 volumes (i.e., 3 times the volume of PBS or plasma) of acetonitrile containing 1% formic acid and an internal standard to terminate the reaction. AB SCIEX API 3000 LC-MS/MS analysis of the test compounds was performed without a standard curve. Half-lives (T1/2) of the test compounds were determined from graphs of the percent remaining values using the peak area response ratio.

[2] = Solid-state stability (appearance, HPLC purity) on storage; type: physicochemical; conditions: 40° C., 70% RH
Method: Solid, powdered samples of compound 2 (1-(4-chlorophenyl)-N-hydroxymethanesulfonamide) were sealed in double polyethylene bags and stored at 40° C., 70% relative humidity (RH) for up to 3 months. After 2 weeks, 1 month, 2 months, and 3 months of storage, the samples were analyzed for visual appearance and/or purity, as determined by high performance liquid chromatography (HPLC). The HPLC measurement conditions were as follows: • Column: PrimeSep AB, 150×4.6 mm, 5 μm • Injection Volume: 10 μL • Detection Wavelength: 220 nm • Mobile Phase A: 0.3% Trifluoroacetic acid (TFA) in deionized water (DI-H2O) • Mobile Phase B: 0.2% TFA in acetonitrile • Diluent: Acetonitrile • Gradient:
• Flow Rate: 1.0 mL/min • Column Temperature: 30° C.

[3] = Nitroxyl production via N2O headspace analysis (GC); conditions: PBS, 37° C.
Description: Nitrous oxide (N2O) is produced via the dimerization and dehydration of HNO, and is the most common marker for nitroxyl production (Fukuto et al., Chem. Res. Toxicol. 18:790-801 (2005)). […] Using either nitrous oxide gas or Angeli's salt (AS) as a standard, the relative amounts of N2O released from N-hydroxymethanesulfonamide nitroxyl donating compounds was examined via gas chromatography (GC) headspace analysis.
A procedure for determining the relative amounts of N2O released from N-hydroxymethanesulfonamide nitroxyl donating compounds is as follows. GC was performed on an Agilent gas chromatograph equipped with a split injector (10:1 splitting), microelectron capture detector, and a HP-MOLSIV 30 m×0.32 mm×25 μm molecular sieve capillary column. Helium was used as the carrier (4 mL/min) gas and nitrogen was used as the make-up (20 mL/min) gas. […]
All determinations used a batch of nominal 20 mL headspace vials with volumes pre-measured for sample uniformity (actual vial volume varied by ≤2.0% relative standard deviation (n=6)). The average vial volume for the batch was determined from six randomly-selected vials by calculating the weight difference between the capped and sealed empty (i.e., air-filled) vial and the capped and sealed deionized water-filled vial using the known density of deionized water, then averaging. […]

[4] = In vitro stability in rat plasma; type: in vitro ADME; conditions: male, pH 7.4, 37° C., read-out: T1/2 (minutes) Rat
Method: as §1

[5] = In vitro stability in dog plasma; type: in vitro ADME; conditions: male, pH 7.4, 37° C., read-out: T1/2 (minutes) Dog
Method: as §1

For O=S(=O)(Cc1ccc(Cl)cc1)NO [Compound 2, 1-(4-Chlorophenyl)-N-hydroxymethanesulfonamide], the half-life at 5 μM [1] was 102 min, the Appearance ([2]; 0 Weeks) was “White” and the “HPLC Purity” value ([2]; 0 Weeks) was 98.912%. The “HPLC peak at RRT 0.88” value ([2]; 0 Weeks) was 0.368%, the “HPLC peak at RRT 1.23” value ([2]; 0 Weeks) was 0.087% and the “HPLC peak at RRT 1.35” value ([2]; 0 Weeks) was 0.633%. For the same compound, the Appearance ([2]; 1 Month) was “White”, the “HPLC Purity” value ([2]; 1 Month) was 95.579% and the “HPLC peak at RRT 0.88” value ([2]; 1 Month) was 0.966%. The “HPLC peak at RRT 1.54” value ([2]; 1 Month) was 1.959%, the “HPLC peak at RRT 1.76” value ([2]; 1 Month) was 0.502% and the Appearance ([2]; 2 Months) was “Off white”. The “HPLC Purity” value ([2]; 2 Months) was 82.665%, the “HPLC peak at RRT 0.88” value ([2]; 2 Months) was 3.600% and the “HPLC peak at RRT 1.53” value ([2]; 2 Months) was 6.432%. For the same compound, the “HPLC peak at RRT 1.77” value ([2]; 2 Months) was 3.234%, the Appearance ([2]; 2 Weeks) was “White” and the Appearance ([2]; 3 Months) was “Off white”. The “HPLC Purity” value ([2]; 3 Months) was 76.661%, the “HPLC peak at RRT 0.88” value ([2]; 3 Months) was 4.108% and the “HPLC peak at RRT 1.50” value ([2]; 3 Months) was 10.123%. For the same compound, the “HPLC peak at RRT 1.77” value ([2]; 3 Months) was 3.165%, the “Relative N2O Yield (90 minute incubation)” value [3] was 24% and the melting point was 144 °C. For the same compound, the half-life at 5 μM [4] was 114 min and the half-life at 5 μM [5] was 62 min.
With O=[N+]([O-])c1ccccc1CS(=O)(=O)NO [Compound 1, N-Hydroxy-1-(2-nitrophenyl)methanesulfonamide] the “Relative N2O Yield (90 minute incubation)” value [3] was 37%, the melting point was 163 °C and the half-life at 5 μM [5] was 26 min.
